From PMC6021127 (Nature chemistry, 2017) come the findings set out here.

Molecules are shown by their SMILES. Where two headings read alike, the source gives them in different places.

The subject of data set [1] is DU145 prostate cancer cell line. Description: Cytotoxicity against DU145 prostate cancer cells.
The test system of data set [2] is A2058 melanoma cell line. Description: Cytotoxicity against A2058 melanoma cells.
The test system of data set [3] is P388 murine leukemia cell lines. Description: Cytotoxicity against P388 murine leukemia cells.
Data set [4] deals with NCI 60 cell line panel. Put plainly: NCI 60 cell line panel evaluation. It is filed as cell-based. The note with it: read-out: mean GI50.
The mark [5] stands for this setting: Homo sapiens, DU-145, read-out: Cytotoxicity IC50, DU145.
[6] abbreviates: Homo sapiens, A2058, read-out: Cytotoxicity IC50, A2058.
The mark [7] stands for this setting: read-out: Cytotoxicity IC50, DU145, DU145 prostate cancer cells.
[8] abbreviates: read-out: Cytotoxicity IC50, A2058, A2058 melanoma cells.
[9] abbreviates: read-out: Cytotoxicity IC50, P388, P388 murine leukemia cells.

Turning to `COC(=O)C[C@](O)(CCCC(C)(C)O)C(=O)O[C@@H]1C(OC)=C[C@]23CCCN2CCc2cc4c(cc2[C@H]13)OCO4` [compound 1, homoharringtonine, reference compound], the IC50 turned out to be 230 nM in data set [1] (setting [5]) and 170 nM in data set [2] (setting [6]).

As to `C[C@@H]1C[C@@H]([C@H](O)CC2CC(=O)NC(=O)C2)C(=O)[C@@H](C)C1` [compound 2, cycloheximide, reference compound], the IC50 in data set [1] (setting [5]) was more than 10000 nM; in data set [2] (setting [6]), more than 10000 nM; in data set [3] (Mus musculus, P388, read-out: Cytotoxicity IC50, P388), 5600 nM.

Regarding `C=C1[C@@H](O)C[C@H]2C(C)(C)C[C@H](Cl)C[C@]2(C)[C@H]1C[C@H](O)[C@H]1CC(=O)NC1=O` [compound 3, chlorolissoclimide], the GI50 in data set [4] is 15 nM. Also, the values for the IC50 in data set [1] (setting [5]) and in data set [2] (setting [6]) were 490 nM and 250 nM, respectively.

For `C=C1[C@@H](O)C[C@H]2C(C)(C)[C@@H](Cl)[C@H](Cl)C[C@]2(C)[C@H]1C[C@H](O)[C@H]1CC(=O)NC1=O` [compound 4, dichlorolissoclimide, reference compound], in data set [3] (Mus musculus, P388, read-out: Cytotoxicity IC50 against P388), the IC50 is approximately 400 nM.

As to `C=C1[C@@H](OC(C)=O)C[C@H]2C(C)(C)C[C@H](Cl)C[C@]2(C)[C@H]1C[C@H](O)[C@H]1CC(=O)NC1=O` [compound 7], the IC50 came out at 460 nM in data set [1] (setting [7]), 3460 nM in data set [2] (setting [8]) and 2100 nM in data set [3] (setting [9]).

Turning to `C=C1[C@@H](O)C[C@H]2C(C)(C)CCC[C@]2(C)[C@H]1C[C@H](O)[C@H]1CC(=O)NC1=O` [compound 8, haterumaimide Q], the values for the IC50 in data set [1] (setting [7]), in data set [2] (setting [8]) and in data set [3] (setting [9]) were 1490 nM, 2340 nM and 200 nM, respectively.
